# In US20110160147A1, “NOVEL DUAL TARGETING A[…]” (priority 2008, published 2011):
# Several values for one entry are separate records, joined by “and”; a condition that tells them apart may be missing. Identical values can stand only once.
# Key:
# αvβ3 receptor = αvβ3 receptor (Homo sapiens, UniProt P05106+P06756); experiment: Solid-phase binding assay, inhibition of [125I]Echistatin binding to αvβ3 receptor
# Procedure: The receptor binding assays were performed as described (Orlando R. A., et al., J. Biol. Chem. 1991, 266, 19543). αvβ3 and αvβ5 were diluted to 500 ng/ml and 1 μg/ml, respectively, in coating buffer (20 mM Tris, pH 7.4, 150 mM NaCl, 2 mM CaCl2, 1 mM MgCl2, 1 mM MnCl2) and an aliquot of 100 μL was added to a 96-well microtiter plate and incubated overnight at 4° C. The plate was washed once with blocking/binding buffer (50 mM Tris, pH 7.4, 100 mM NaCl, 2 mM CaCl2, 1 mM MgCl2, 1 mM MnCl2, 1% bovine serum albumin), and then was incubated for additional 2 h at RT The plate was rinsed twice with the same buffer and incubated for 3 h at RT with radiolabeled ligand [^125I]Echistatin (Amersham Pharmacia Biotech) 0.05 nM (0.1 nM for αv β5) in the presence of competing inhibitors. After the incubation, the wells were washed and radioactivity was determined with a gamma-counter (Packard). Non-specific binding of ligand was determined with molar excess (200 nM) of cold echistatin.
# The IC50 values reported in Tables 1 and 2 were calculated as the concentrations of compounds required for 50% inhibition of echistatin binding and were estimated by the Prism GraphPad program. The Ki of the competing ligands were calculated according to the Cheng-Prusoff equation (Cheng Y. C., et al., Biochem. Pharmacol., 1973, 22, 3099). Values are the mean±log standard error of triplicate determinations from two independent experiments.
# [1] = Antitumour activity against A2780 ovarian carcinoma xenografted in CD1 nude mice; assay type: in vivo; conditions: CD1 nude, mouse, in vivo, sc; s.c. qdx5/wx2w; read-out: approximate maximum tolerate dose (MTD)
# Procedure: (§1) Tumour cell lines (3×10^6) were injected s.c. into the right flank of CD1 nude mice (Harlan). Each experimental group included 10 mice. Tumours were implanted on day 0, and tumour growth was followed by biweekly measurements of tumour diameters with a Vernier caliper. Tumour volume was calculated according to the formula: TV (mm^3)=d^2×D/2, where d and D are the shortest diameter and the longest diameter respectively. Drug treatment started when tumours were just measurable on day 3 after tumour inoculation. The drug was administered subcutaneously for two weeks according to the schedule qd×5/w×2w at different doses in a volume of 10 ml/kg. Control mice were treated with the vehicle (10% DMSO).
# (§2) Drug efficacy was assessed as described below. • a) TVI in drug-treated versus control mice was expressed as follows: TVI (%)=100−(mean TV treated/mean TV control)×100. TVI was evaluated 6 days after the last treatment, this timing corresponding to the time necessary to observe a doubling of tumour volume in the control mice. • b) Log cell kill (LCK) was calculated using the following formula: LCK=(T−C)/3.32×DT where T and C are the mean time (in days) required for treated (T) and control (C) tumours, respectively to reach a determined volume, and DT is the time necessary to observe a doubling of tumour volume in the control mice. • c) CR was defined as disappearance of the tumour lasting at least 6 days after the end of treatments. Tumours that had not regrown by the end of the experiment were considered “cured”.
# (§3) Toxic effects of drug treatment were assessed as described below. • a) BWL was calculated as follows: BWL (%)=100−(mean body weight day x/mean body weight day 1)×100, where day 1 is the first day of treatment, and day x is any day thereafter. Mice were weighed every day throughout the period of treatment. • b) Lethal toxicity was defined as any death in treated groups occurring before any control death. Mice were inspected daily for mortality.
# (§4) TI (therapeutic index) was calculated as ratio MTD/ED80.
# [2] = tested on: A2780 ovarian ca. xenografted in CD1 nude mice; experiment: as above; assay type: in vivo; conditions: for TVI % versus control mice: 6 days after last treatment
# Procedure: as §1, §2, §3, §4
# [3] = 0.92 mg/10 ml/kg s.c. qdx5/wx2w
# [4] = 2.77 mg/10 ml/kg s.c. qdx5/wx2w
# Sequence of αvβ3 receptor (P06756 31-889 limits assumed): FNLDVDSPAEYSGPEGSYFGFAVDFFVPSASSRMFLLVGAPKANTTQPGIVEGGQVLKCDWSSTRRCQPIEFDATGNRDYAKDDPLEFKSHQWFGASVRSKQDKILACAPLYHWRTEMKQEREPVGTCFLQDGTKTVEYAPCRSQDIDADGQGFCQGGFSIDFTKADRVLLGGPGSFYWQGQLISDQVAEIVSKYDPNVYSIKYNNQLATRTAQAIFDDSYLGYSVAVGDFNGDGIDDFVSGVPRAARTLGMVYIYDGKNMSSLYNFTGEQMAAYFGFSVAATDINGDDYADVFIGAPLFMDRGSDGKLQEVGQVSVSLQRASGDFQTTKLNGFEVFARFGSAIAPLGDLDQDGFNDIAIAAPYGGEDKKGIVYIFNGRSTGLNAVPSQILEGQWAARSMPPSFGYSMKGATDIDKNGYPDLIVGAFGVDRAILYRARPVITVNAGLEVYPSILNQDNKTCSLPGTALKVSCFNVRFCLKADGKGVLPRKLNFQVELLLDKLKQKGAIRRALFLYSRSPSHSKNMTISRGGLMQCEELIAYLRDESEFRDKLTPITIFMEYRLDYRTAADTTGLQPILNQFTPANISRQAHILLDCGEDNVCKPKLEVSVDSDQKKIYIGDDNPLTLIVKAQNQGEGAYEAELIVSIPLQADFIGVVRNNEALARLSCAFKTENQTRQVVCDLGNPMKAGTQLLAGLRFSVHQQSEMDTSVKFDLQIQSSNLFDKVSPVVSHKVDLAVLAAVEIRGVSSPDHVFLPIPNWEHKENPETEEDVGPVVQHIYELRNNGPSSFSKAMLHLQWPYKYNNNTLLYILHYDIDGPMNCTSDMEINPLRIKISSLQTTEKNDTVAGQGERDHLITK
# Sequence of αvβ3 receptor (P06756 891-1048 partner limits assumed): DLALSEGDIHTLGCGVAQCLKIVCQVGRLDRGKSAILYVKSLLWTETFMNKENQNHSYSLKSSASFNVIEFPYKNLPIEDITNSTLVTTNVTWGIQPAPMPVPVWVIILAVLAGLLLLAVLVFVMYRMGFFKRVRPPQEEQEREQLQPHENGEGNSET
# Sequence of αvβ3 receptor (P05106 27-788): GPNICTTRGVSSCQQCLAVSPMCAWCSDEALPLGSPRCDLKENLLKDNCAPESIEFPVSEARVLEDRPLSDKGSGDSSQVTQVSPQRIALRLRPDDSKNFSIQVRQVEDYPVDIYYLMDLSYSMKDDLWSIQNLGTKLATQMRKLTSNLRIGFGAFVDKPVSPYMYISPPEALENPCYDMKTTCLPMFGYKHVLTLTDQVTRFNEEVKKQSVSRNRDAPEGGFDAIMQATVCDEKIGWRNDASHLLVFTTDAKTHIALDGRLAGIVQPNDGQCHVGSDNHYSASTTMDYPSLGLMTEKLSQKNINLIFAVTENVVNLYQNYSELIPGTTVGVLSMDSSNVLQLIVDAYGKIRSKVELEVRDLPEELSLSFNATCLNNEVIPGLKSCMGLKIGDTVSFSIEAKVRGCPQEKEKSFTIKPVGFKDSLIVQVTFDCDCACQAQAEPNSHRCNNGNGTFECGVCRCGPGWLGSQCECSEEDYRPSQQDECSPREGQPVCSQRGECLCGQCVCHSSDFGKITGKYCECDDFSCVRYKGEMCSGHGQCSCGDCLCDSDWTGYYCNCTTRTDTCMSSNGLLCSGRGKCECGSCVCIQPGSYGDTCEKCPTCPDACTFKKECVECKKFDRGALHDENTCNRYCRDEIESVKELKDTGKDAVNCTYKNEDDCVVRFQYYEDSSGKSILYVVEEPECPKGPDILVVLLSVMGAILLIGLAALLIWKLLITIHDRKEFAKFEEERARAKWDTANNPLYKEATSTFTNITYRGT
compound,measurement,setting,value
CC[C@@]1(O)C(=O)OCc2c1cc1n(c2=O)Cc2c-1nc1ccccc1c2C=NOCCNC(=O)OCc1ccc(NC(=O)[C@H](CCCNC(N)=O)NC(=O)[C@H](C)NC(=O)COCCOCCOCC(=O)NCc2ccc(C[C@@H]3NC(=O)[C@@H](Cc4ccccc4)NC(=O)[C@H](CC(=O)O)NC(=O)CNC(=O)[C@H](CCCNC(=N)N)NC3=O)cc2)cc1 [ST3833],IC50,αvβ3 receptor,78.4 ± 1.5 nM
same,Ki,αvβ3 receptor,61 nM
same,MTD at 2 weeks,[1],~25 mg/kg
same,BWL % (maximum body weight loss),[2]; [3],0%
same,CR (disappearance of tumour),[2]; [3],3/10
same,Cured (mice without lesion 90 days after tumour injection),[2]; [3],3/10
same,LCK (log cell kill),[2]; [3],0.9
same,Lethal toxicity (dead/treated animals),[2]; [3],0/10
same,TVI % versus control mice,[2]; [3],60%
same,cured mice,[2]; 0.92 mg/kg,30%
same,BWL % (maximum body weight loss),[2]; [4],0%
same,CR (disappearance of tumour),[2]; [4],3/10
same,Cured (mice without lesion 90 days after tumour injection),[2]; [4],3/10
same,LCK (log cell kill),[2]; [4],1.1
same,Lethal toxicity (dead/treated animals),[2]; [4],0/10
same,TVI % versus control mice,[2]; [4],75%
same,cured mice,[2]; 2.77 mg/kg,30%
same,BWL % (maximum body weight loss),[2]; 8.3 mg/10 ml/kg s.c. qdx5/wx2w,0%
same,CR (disappearance of tumour),[2]; 8.3 mg/10 ml/kg s.c. qdx5/wx2w,5/10
same,Cured (mice without lesion 90 days after tumour injection),[2]; 8.3 mg/10 ml/kg s.c. qdx5/wx2w,4/10
same,LCK (log cell kill),[2]; 8.3 mg/10 ml/kg s.c. qdx5/wx2w,2.7
same,Lethal toxicity (dead/treated animals),[2]; 8.3 mg/10 ml/kg s.c. qdx5/wx2w,0/10
same,TVI % versus control mice,[2]; 8.3 mg/10 ml/kg s.c. qdx5/wx2w,100%
same,BWL % (maximum body weight loss),[2]; 25 mg/10 ml/kg s.c. qdx5/wx2w,25% and 24%
same,CR (disappearance of tumour),[2]; 25 mg/10 ml/kg s.c. qdx5/wx2w,9/9
same,Cured (mice without lesion 90 days after tumour injection),[2]; 25 mg/10 ml/kg s.c. qdx5/wx2w,9/9
same,LCK (log cell kill),[2]; 25 mg/10 ml/kg s.c. qdx5/wx2w,>11.4
same,Lethal toxicity (dead/treated animals),[2]; 25 mg/10 ml/kg s.c. qdx5/wx2w,1/10
same,TVI % versus control mice,[2]; 25 mg/10 ml/kg s.c. qdx5/wx2w,100%
same,cured mice,[2]; 1/3 MTD (8.3 mg/kg),50%
same,cured mice at day 90,[2]; at the MTD (25 mg/kg s.c.),100%
